Source: patent publication US7815803B2, “Preparation of samples for LC-MS/MS using magnetic particles” (Roche Diagnostics Operations, Inc., priority 2007, dated 2010)

Tests used:
[1] = in vivo; cited from earlier work
[2] = in vitro; cited from earlier work
[3] = Pooled serum from itraconazole treated patients, LC-MS/MS validation; assay type: in vivo, human; conditions: n=9
Description: A validation protocol was performed in three independent analytical series. In each series a five-point calibration was performed using a commercially available calibration material for itraconazole measurement (2,000 μg/l, 1,000 μg/l, 500 μg/l, 250 μg/l, and 125 μg/l; Recipe, Munich, Germany). Aliquots of pooled serum from itraconazole treated patients were analyzed in triplicate in each series to calculate a total coefficient of variation (n=9). Commercially available quality control materials (ClinCheck, Recipe, Munich, Germany) in two concentration ranges (target concentrations 150 μg/l, and 2,900 μg/l) were analyzed in the three series.
Linear calibration lines (r>0.99) were obtained in all series. For the pooled serum a total coefficient of variation of 3.4% was observed (mean concentration 380 μg/l); all quality control samples were found within the predefined accepted ranges (±10% of the target concentrations).

| mean concentration in pooled serum [3] | Structure (SMILES) | therapeutic trough concentration [1] | potency relative to cyclosporin [2] |
| --- | --- | --- | --- |
| – | COc1c(C)c2c(c(O)c1C/C=C(\C)CCC(=O)OCCN1CCOCC1)C(=O)OC2 [Mycophenolate mofetil, mycophenolate mofetil] | 1000 to 3500 µg/L | – |
| – | CO[C@H]1C[C@@H]2CC[C@@H](C)[C@@](O)(O2)C(=O)C(=O)N2CCCC[C@H]2C(=O)O[C@H]([C@H](C)C[C@@H]2CC[C@@H](O)[C@H](OC)C2)CC(=O)[C@H](C)/C=C(\C)[C@@H](O)[C@@H](OC)C(=O)[C@H](C)C[C@H](C)/C=C/C=C/C=C/1C [Sirolimus, sirolimus] | 5 to 15 µg/L | – |
| – | C=CC[C@@H]1/C=C(\C)C[C@H](C)C[C@H](OC)[C@H]2O[C@@](O)(C(=O)C(=O)N3CCCC[C@H]3C(=O)O[C@H](/C(C)=C/[C@@H]3CC[C@@H](O)[C@H](OC)C3)[C@H](C)[C@@H](O)CC1=O)[C@H](C)C[C@@H]2OC [Tacrolimus, tacrolimus] | 5 to 20 µg/L | up to 100 times |
| 380 ng/mL | CCC(C)n1ncn(-c2ccc(N3CCN(c4ccc(OCC5COC(Cn6cncn6)(c6ccc(Cl)cc6Cl)O5)cc4)CC3)cc2)c1=O (centres unmarked) [itraconazole] | – | – |
